IC50 data for 11 molecules are collected here from patent US8258158B2 (Hoffmann-La Roche Inc., priority 2009, dated 2012).

The experiment deals with T1, human HSL (Homo sapiens, UniProt Q05469).
T1 construct: overlapping PCR to generate a full length human HSL ORF with a 3′-His6 tag; His6 (C); made in house; host or cells: High 5 insect cells (baculovirus, pFast-BAC)
T1 sequence (Q05469 1-1076): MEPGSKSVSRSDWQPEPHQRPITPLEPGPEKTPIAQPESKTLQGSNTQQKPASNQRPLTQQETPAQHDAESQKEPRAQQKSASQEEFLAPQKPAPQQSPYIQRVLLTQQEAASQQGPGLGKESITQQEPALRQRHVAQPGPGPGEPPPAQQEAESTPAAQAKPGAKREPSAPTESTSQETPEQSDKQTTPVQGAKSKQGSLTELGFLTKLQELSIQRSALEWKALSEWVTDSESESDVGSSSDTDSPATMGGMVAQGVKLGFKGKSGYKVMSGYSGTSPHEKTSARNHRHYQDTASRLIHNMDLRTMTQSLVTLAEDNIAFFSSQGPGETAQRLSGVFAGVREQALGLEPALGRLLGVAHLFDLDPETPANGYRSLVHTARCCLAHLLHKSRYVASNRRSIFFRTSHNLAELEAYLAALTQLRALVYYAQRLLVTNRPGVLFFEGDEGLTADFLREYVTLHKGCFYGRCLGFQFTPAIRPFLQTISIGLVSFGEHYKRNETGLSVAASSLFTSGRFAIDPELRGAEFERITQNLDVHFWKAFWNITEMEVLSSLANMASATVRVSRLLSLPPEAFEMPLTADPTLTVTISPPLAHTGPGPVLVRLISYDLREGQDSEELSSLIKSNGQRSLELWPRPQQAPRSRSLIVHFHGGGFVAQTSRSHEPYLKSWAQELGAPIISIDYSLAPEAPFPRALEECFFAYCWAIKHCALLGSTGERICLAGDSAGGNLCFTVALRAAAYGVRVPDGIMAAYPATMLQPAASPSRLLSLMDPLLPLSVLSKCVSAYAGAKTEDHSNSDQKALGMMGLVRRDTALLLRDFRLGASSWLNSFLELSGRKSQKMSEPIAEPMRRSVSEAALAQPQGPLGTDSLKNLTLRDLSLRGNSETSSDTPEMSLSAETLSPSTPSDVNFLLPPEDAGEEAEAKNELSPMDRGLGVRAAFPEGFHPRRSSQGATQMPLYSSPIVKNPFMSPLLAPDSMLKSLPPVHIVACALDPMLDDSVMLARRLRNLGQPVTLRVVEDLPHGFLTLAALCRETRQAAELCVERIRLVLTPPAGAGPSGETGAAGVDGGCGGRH
Description: Human hormone-sensitive lipase (HSL) enzyme inhibition assay (colorimetric, DMPT substrate). In kind it is biochemical. The conditions noted are these: human full length HSL-His6; 2,3-dimercapto-1-propanol tributyrate substrate; 37° C., 20 minutes; read-out: HSL hum IC50. In short, it runs like this: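 Full-length human HSL with C-terminal His6, expressed in baculovirus/High 5 cells and Ni-NTA purified, was added from a 15 µg/ml solution to 1.5 mM DMPT in 100 mM MOPS pH 7.2, 0.2 mg/ml fatty acid-free BSA. After 20 min at 37 °C, DTNB with SDS/Triton X-100 was added, 15 min RT, and A405 read.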
Usually IC50 stands for the concentration needed to halve the response being measured. On to `COc1ccc(S(=O)(=O)N2CCC(C(=O)Nc3ccc(OC(C)C)cc3)CC2)cc1` [Example 49, 1-(4-Methoxy-benzenesulfonyl)-piperidine-4-carboxylic acid (4-isopropoxy-phenyl)-amide], for which the IC50 worked out at 90 nM. The result for `Cc1ccc(S(=O)(=O)N2CCC(CO)(C(=O)Nc3ccc(OC(F)(F)F)cc3)CC2)cc1` [Example 51] reads 330 nM; that for `CC(C)(C)CCC(=O)N1CCC(C(=O)Nc2ccc(OC(F)(F)F)cc2)CC1` [Example 56, 1-(4,4-Dimethyl-pentanoyl)-piperidine-4-carboxylic acid (4-trifluoromethoxy-phenyl)-amide], 260 nM; that for `CC1(C(=O)Nc2ccc(OC(F)(F)F)cc2)CCN(S(=O)(=O)c2ccccc2)CC1` [Example 57, 1-Benzenesulfonyl-4-methyl-piperidine-4-carboxylic acid (4-trifluoromethoxy-phenyl)-amide], 250 nM.

For the molecule `CC1(C(=O)Nc2ccc(OC(F)(F)F)cc2)CCN(S(=O)(=O)c2ccccc2Cl)CC1` [Example 58, 1-(2-Chloro-benzenesulfonyl)-4-methyl-piperidine-4-carboxylic acid (4-trifluoromethoxy-phenyl)-amide], the IC50 was found to be 540 nM. The result for `COCC[C@@H](Oc1ccc(NC(=O)C2CCN(S(=O)(=O)c3ccc(C)cc3)CC2)cc1)C(F)(F)F` [Example 59, 1-(Toluene-4-sulfonyl)-piperidine-4-carboxylic acid [4-((R)-3-methoxy-1-trifluoromethyl-propoxy)-phenyl]-amide] reads 290 nM; that for `Cc1ccc(S(=O)(=O)N2CCC(C(=O)Nc3ccc(O[C@H](CCO)C(F)(F)F)cc3)CC2)cc1` [Example 60, 1-(Toluene-4-sulfonyl)-piperidine-4-carboxylic acid [4-((R)-3-hydroxy-1-trifluoromethyl-propoxy)-phenyl]-amide], 70 nM; that for `O=C(NCC1(c2ccc(Cl)cc2)CC1)C1CCN(S(=O)(=O)c2ccccc2Cl)CC1` [Example 61, 1-(2-Chloro-benzenesulfonyl)-piperidine-4-carboxylic acid [1-(4-chloro-phenyl)-cyclopropylmethyl]-amide], 640 nM. Consider `O=C(NCC1(c2ccc(Cl)cc2)CC1)C1CCN(S(=O)(=O)c2ccccc2)CC1` [Example 62, 1-Benzenesulfonyl-piperidine-4-carboxylic acid [1-(4-chloro-phenyl)-cyclopropylmethyl]-amide], for which the IC50 stood at 530 nM.

With `Cn1cc(S(=O)(=O)N2CCC(F)(C(=O)Nc3ccc(OC(F)(F)F)cc3)CC2)c(C(F)(F)F)n1` [Example 63, 4-Fluoro-1-(1-methyl-3-trifluoromethyl-1H-pyrazole-4-sulfonyl)-piperidine-4-carboxylic acid (4-trifluoromethoxy-phenyl)-amide], the 50% inhibitory concentration (IC50) worked out at 1090 nM. The result for `Cc1ccc(S(=O)(=O)N2CCC(C(=O)NCC3(c4ccc(Cl)cc4)CC3)CC2)cc1` [Example 64, 1-(Toluene-4-sulfonyl)-piperidine-4-carboxylic acid [1-(4-chloro-phenyl)-cyclopropylmethyl]-amide] reads 1490 nM.
